Experiments:
[1] = system: myocardial ischemia-reperfusion (IR) injury; assay: Infarct size in rat model of myocardial ischemia-reperfusion (IR) injury; type: in vivo; details: 45 min ischemia, Epi 0.5 mg/kg and/or Nico 33 f× g/kg IV, repeated low dose, infarct size 48 h after IR
Description: The general methods for the implementation of the rat myocardial IR model are detailed elsewhere. The total time of myocardial ischemia was 45 min Dx-EPI (3 mg/kg) was mixed in saline solution and given IV via the jugular vein. Control animals received dextran saline solution injections. Infarct size was examined 48 h after IR using established procedures.
The general methods for the implementation of the rat myocardial IR model are described herein. The total time of myocardial ischemia was 45 min Treatment was administered a total of 1, 2 or 3 times. The initial dose was given15 min prior to reperfusion and then at 12 (in the case of 2× and 3× dosing) and again at 24 h (in the case of 3× dosing) after reperfusion. Epi (0.5 mg/kg) and/or Nico (33 f× g/kg) were mixed in water and given IV using the jugular vein. Control animals only received water injections. Infarct size was examined 48 h after IR using established procedures.

[2] = system: human skeletal muscle myocytes (HSKM cells); assay: Oxygen consumption rate in primary human skeletal muscle myocytes; type: cell-based; details: 48 hours, 300 nM FCCP
Description: Measured endogenous rates of respiration reflect the net balance between rates of energy utilization, energy production, and mitochondrial uncoupling. This was followed by induction of resting (State 4o) respiration with the addition of 1 uM oligomycin to inhibit ATP synthase. State 4 respiration is primarily determined by the rate of proton leak across the inner mitochondrial membrane. Maximal respiration was then assessed by the addition of 300 nM FCCP, a chemical uncoupler of oxidative phosphorylation. In intact cells, this rate reflects the maximal rates of substrate oxidation and electron transport chain activity. An increase in maximal rates can reflect changes in the regulation or expression level of oxidative enzymes, electron transport chain components, or total mitochondrial mass. […] As a control, nonmitochondrial O2 consumption was measured after the addition of 100 nM rotenone and 100 nM myxothiazol to completely block the respiratory chain.
Respiration of the intact cells was measured in unbuffered DMEM containing 10 mM glucose, 10 mM pyruvate, and 2 mM glutamine. In panel A, endogenous respiration was measured on HSKM cells, followed by state 4 (resting) respiration with the addition of 1 uM oligomycin (indicated as ‘A’), and then maximal rates were measured after the addition of 300 nM FCCP, a chemical uncoupler (indicated as ‘B’). […]

[3] = system: mitochondrial swelling (damage) induced by high calcium; assay: Calcium-induced mitochondrial swelling, EPI and NICO co-treatment, isobolographic analysis; type: biochemical; details: rat left ventricle mitochondria; 33 μM CaCl2; 535 nm, 30 min
Description: To determine the effect that (-)-epicatechin (EPI) and nicorandil (NICO) co-treatment has on mitochondrial swelling (damage) induced by high calcium, EPI or NICO, and EPI+NICO protective effects against calcium induced mitochondrial damage (swelling), were evaluated by monitoring changes in optical density (OD, light absorbance): Hearts from male rats were excised and weighed. Left ventricles were homogenized (0.1 g/mL) in solution A (Sucrose 2M, EDTA 0.01M, Hepes 0.5M: pH=7.4), centrifuged 10 min (800×g), 4° C., the supernatant was centrifuged 10 min (8000×g), 4° C. and the pellet was re-suspended in solution B (Sucrose 2M, EDTA 0.01M, Tris 0.5M-H2PO4-50 mM: pH=7.4) and centrifuged 10 min (10000×g), 4° C. Pellet was re-suspended in 10 mL of solution C (Sucrose 2M, EDTA 0.01M, Tris 0.5M-H2PO4-50 mM, Succinate 1M: pH=7.4. 33 μM of CaCl2 was then, added in order to induce mitochondrial […] (swelling measured through absorbace changes at 535 nm, monitored continuosly during 30 min Dose-response effects on mitochondrial swelling to EPI and NICO treatment were pursued.

[4] = system: electron transport chain proteins; assay: Western blot of mitochondrial electron transport chain proteins in C2C12 cells; type: cell-based, mouse; details: 1 μM, 48 hours
Description: Western blots of cell lysates were used to assess levels of mitochondrial to determine if improved respiration is due to enhanced mitochondrial biogenesis.

Row | Compound | reduction of infarct size vs. controls [1] [%] | stimulating mitochondrial function (maximal, uncoupler-stimulated respiration) [2] | effect on calcium-induced mitochondrial damage (swelling) [3] | expression level of the 20 kDa subunit of complex I [4]
1 | O=C(NCCO[N+](=O)[O-])c1cccnc1 [nicorandil, N-[2-(Nitroxy)ethyl]-3-pyridinecarboxamide] | 37 | active | can limit | 
2 | Oc1cc(O)c2c(c1)O[C@H](c1ccc(O)c(O)c1)[C@H](O)C2 [Epicatechin, (−)-epicatechin] | 27 |  |  | 
3 | catechin |  | active |  | clearly increased

— patent publication US20120095063A1, “METHODS AND COMPOSITIONS FOR TREATMENT OF ISCHEMIC CONDITIONS AND CONDITIONS RELATED TO MITOCHONDRIAL FUNCTION” (priority 2009, published 2012)
